Like-named read-outs stand apart in the source and are kept apart here. Each block holds one compound with its values, some of them ahead of it.
Key:
P. falciparum TM4 = assay: In vitro blood stage antimalarial efficacy, [3H]hypoxanthine uptake, strain TM4; format: cell-based; conditions: Plasmodium falciparum
Protocol: (§1) In Vitro Blood Stage Antimalarial Efficacy Evaluation. New compounds were tested against a panel of strains of P. falciparum.
(§2) Test compounds were initially dissolved in DMSO and diluted 400 fold in RPMI 1640 culture medium supplemented with 25 mM Hepes, 32 mM NaHCO3 and 10% Albumax I (Gibco, NY). These solutions were subsequently serially diluted two-fold with a Beckman Biomek® 1000 Robot (Fullerton, Calif.) over 11 different concentrations. The parasites were exposed to serial dilutions of each compound for 48 hrs and incubated at 37° C. with 5% O2, 5% CO2 and 90% N2 prior to the addition of [^3H]hypoxanthine. After a further incubation of 18 hrs, parasite DNA was harvested from each microtiter well using Packard Filtermate™ 196 Harvester (Meriden, Conn.) onto glass filters. Uptake of [^3H]hypoxanthine was measured with a Packard TopCount Liquid Scintillation Counter (Packard Instrument Co.).

P. falciparum DD2 = assay: In vitro blood stage antimalarial efficacy, [3H]hypoxanthine uptake, strain DD2; format: cell-based; conditions: Plasmodium falciparum
Protocol: as §1, §2

P. falciparum TM6 = assay: In vitro blood stage antimalarial efficacy, [3H]hypoxanthine uptake, strain TM6; format: cell-based; conditions: Plasmodium falciparum
Protocol: as §1, §2

P. falciparum 3D7 = assay: In vitro blood stage antimalarial efficacy, [3H]hypoxanthine uptake, strain 3D7; format: cell-based; conditions: Plasmodium falciparum
Protocol: as §1, §2

P. falciparum K1 = assay: In vitro blood stage antimalarial efficacy, [3H]hypoxanthine uptake, strain K1; format: cell-based; conditions: Plasmodium falciparum
Protocol: as §1, §2

P. falciparum PH3 = assay: In vitro blood stage antimalarial efficacy, [3H]hypoxanthine uptake, strain PH3; format: cell-based; conditions: Plasmodium falciparum
Protocol: as §1, §2

P. falciparum V1S = assay: microbe, parasite or virus in culture; format: cell-based; conditions: Plasmodium falciparum
Protocol: as §1, §2

[1] = tested on: Liver stage of P. yoelii yoelii; assay: In vitro liver-stage antimalarial efficacy evaluation; format: cell-based; conditions: Plasmodium yoelii
Protocol: In Vitro Liver-Stage Antimalarial Efficacy Evaluation. Any new desirable antimalarial drug should be broad spectrum: it should be active against both the blood stage and the liver stage of the parasite. New compounds were assessed on the Plasmodium yoelii liver stage in vitro. The liver stage of P. yoelii is a parasite of rodent extensively used as an experimental model for studying the initial phase of the malaria infection.

[2] = tested on: multi-drug resistant P. falciparum Thailand T24 strain; assay: In vivo efficacy in immunocompromised BXN mice infected with P. falciparum T24; conditions: Plasmodium falciparum, 96 h, oral once daily for 4 days
Description: (§3) Antimalarial efficacy data was obtained by evaluating new compounds in two rodent models: (I) Swiss mice infected with rodent malaria strain P. berghei; (II) Immunocompromised BXN mice infected with either the sensitive P. falciparum African NF54 strain or the multi-drug resistant P. falciparum Thailand T24 strain.

P. berghei NK-65 = assay: In vivo efficacy in Swiss mice infected with P. berghei; conditions: Plasmodium berghei, 96 h; P. berghei NK-65, Swiss mice, oral once daily for 4 days; read-out: ED50
[3] = tested on: P. falciparum African NF54 strain; assay: In vivo efficacy in immunocompromised BXN mice infected with P. falciparum NF54; conditions: Plasmodium falciparum, 96 h, oral once daily for 4 days
Description: as §3

rodent P. berghei = conditions: for MCureD (minimum curative dose): rodent P. berghei
Protocol: Antimalarial potency was measured by determination of the MCD (minimum clearance dose), a commonly used efficacy measurement. The primary therapeutic indices, which were obtained by using the MCDs as the effective parameters, were calculated. A secondary therapeutic indices measure of antimalarial potency was determined by use of the dose for the MCureD (minimum curative dose).

Plasmodium cynomolgi = assay: Radical curative activity in relapsed Rhesus monkeys; format: in vivo; conditions: CQ alone 10 mg/kg/day for 7 days, no drug 2
Description: Compounds with antihypnozoite activity will delay the relapse or radically cure the infection. […] Relapse was expected in the control group. Relapse in the treated group indicates failure of the test compounds. […] After standard treatment, blood smears were monitored daily for 4 consecutive days of negative results and 2 times weekly for 2 weeks.

[4] = Sprague-Dawley, rat, in vivo, po

SMILES: CCN(CC)Cc1cc(Nc2ccnc3cc(Cl)ccc23)ccc1O [Amodiaquine, reference compound]
IC50 (P. falciparum TM4; read-out: IC50): 15.2 ± 2.6 nM
IC50 (P. falciparum DD2; read-out: IC50): 9.1 ± 1.2 nM
IC50 (P. falciparum TM6; read-out: IC50): 7.5 ± 2.4 nM
IC50 (P. falciparum 3D7; read-out: IC50): 4.9 ± 1.8 nM
IC50 (P. falciparum K1; read-out: IC50): 21.2 ± 2.1 nM
IC50 (P. falciparum PH3; read-out: IC50): 15.9 ± 3.2 nM
IC50 (P. falciparum V1S): 8.7 ± 2.5 nM

SMILES: COc1cc(NC(C)CCCN)c2ncccc2c1 (stereo not shown) [Primaquine, reference compound]
IC50 [1]: 76 nM

SMILES: C[C@H]1[C@@H](O)O[C@@H]2O[C@@]3(C)CC[C@H]4[C@H](C)CC[C@@H]1[C@@]24OO3 [Dihydroartemisinin, reference compound]
ED50 [2]: 1.2 mg/kg
ED50 (P. berghei NK-65): 0.56 mg/kg
ED50 [3]: 1.1 mg/kg

SMILES: OC(c1cc(C(F)(F)F)nc2c(C(F)(F)F)cccc12)C1CCCCN1 (stereo not shown) [Mefloquine]
MTD (maximum tolerated dose) (Sprague-Dawley, rat, in vivo, po, 2 weeks): 600 mg/kg
Primary therapeutic index (rodent P. berghei; [4]): 60
Secondary therapeutic index (rodent P. berghei; [4]): 15
MCureD (minimum curative dose) (rodent P. berghei; administered orally): 40.5 mg/kg

IC50 [1]: 57 nM
SMILES: O=C1C(O)=C([C@H]2CC[C@H](c3ccc(Cl)cc3)CC2)C(=O)c2ccccc21 [Atovaquone, reference compound]

SMILES: C[C@H]1[C@H](OC(=O)CCC(=O)O)O[C@@H]2O[C@@]3(C)CC[C@H]4[C@H](C)CC[C@@H]1[C@@]24OO3 [Artesunate]
MTD (maximum tolerated dose) (rats, route iv): 250 mg/kg
Primary therapeutic index (rodent P. berghei; MTD divided by MCD, route iv): 37
Secondary therapeutic index (rodent P. berghei; MTD divided by MCureD, route iv): 10
MCureD (minimum curative dose) (rodent P. berghei; route iv): 25.4 mg/kg

SMILES: CCN(CC)CCCC(C)Nc1ccnc2cc(Cl)ccc12 (stereo not shown) [Chloroquine, reference compound]
MTD (maximum tolerated dose) (rats, administered orally (intragastric), observed 2 weeks): 240 mg/kg
IC50 (P. falciparum TM4): 115 ± 12.7 nM
MCureD (minimum curative dose) (rodent P. berghei; administered orally): None
IC50 (P. falciparum DD2): 45.8 ± 10.2 nM
IC50 (P. falciparum TM6): 96.4 ± 6.9 nM
IC50 (P. falciparum 3D7): 9.7 ± 3.4 nM
IC50 (P. falciparum K1): 166 ± 19.3 nM
IC50 (P. falciparum PH3): 33.4 ± 9.1 nM
Results (radical curative test) (Plasmodium cynomolgi): relapse
Days post-treatment (relapse) (Plasmodium cynomolgi; one value per monkey): 9 days
IC50 (P. falciparum V1S): 152 ± 14.1 nM

Reference: patent US8653095B2, “Small molecules with antimalarial activity” (Radix Pharmaceuticals, Inc., priority 2011, dated 2014)
